# Data reported in PMC12281475, “Mediator Kinase Inhibitor Selectivity and Activity in Colorectal Cancer” (ACS Chemical Biology, 2025).
# Key:
# [1] = target: T1, CDK2_CycD1 (Homo sapiens, UniProt P24941); assay: Radiometric protein kinase assay (33PanQinase), CDK2_CycD1; assay type: biochemical; conditions: for Hill Slope: slope of the IC50 fit
# T1 construct: purchased Reaction Biology
# [2] = target: T2, CDK19_CycC (Homo sapiens, UniProt Q9BWU1); assay: Radiometric protein kinase assay (33PanQinase), CDK19_CycC; assay type: biochemical; conditions: for Hill Slope: slope of the IC50 fit
# T2 construct: purchased Reaction Biology
# [3] = target: T3, CDK6_CycD2 (Homo sapiens, UniProt Q00534); assay: Radiometric protein kinase assay (33PanQinase), CDK6_CycD2; assay type: biochemical; conditions: for IC50: highest assay concentration 1.00E-05 M; for Hill Slope: slope of the IC50 fit
# T3 construct: purchased Reaction Biology
# [4] = target: T4, CDK9_CycK (Homo sapiens, UniProt P50750); assay: Radiometric protein kinase assay (33PanQinase), CDK9_CycK; assay type: biochemical; conditions: for IC50: highest assay concentration 1.00E-05 M; for Hill Slope: slope of the IC50 fit
# T4 construct: purchased Reaction Biology
# [5] = target: T5, CDK4_CycD2 (Homo sapiens, UniProt P11802); assay: Radiometric protein kinase assay (33PanQinase), CDK4_CycD2; assay type: biochemical; conditions: for IC50: highest assay concentration 1.00E-05 M; for Hill Slope: slope of the IC50 fit
# T5 construct: purchased Reaction Biology
# [6] = target: T6, CDK1_CycB1 (Homo sapiens, UniProt P06493); assay: Radiometric protein kinase assay (33PanQinase), CDK1_CycB1; assay type: biochemical; conditions: for IC50: highest assay concentration 1.00E-05 M; for Hill Slope: slope of the IC50 fit
# T6 construct: purchased Reaction Biology
# [7] = target: CDK17_p35NCK (Homo sapiens, UniProt Q00537); assay: Radiometric protein kinase assay (33PanQinase), CDK17_p35NCK; assay type: biochemical; conditions: for IC50: highest assay concentration 1.00E-05 M; for Hill Slope: slope of the IC50 fit
# [8] = target: T7, CDK6_CycD3 (Homo sapiens, UniProt Q00534); assay: Radiometric protein kinase assay (33PanQinase), CDK6_CycD3; assay type: biochemical; conditions: for Hill Slope: slope of the IC50 fit
# T7 construct: purchased Reaction Biology
# [9] = target: CDK11B 357-795_CycK (Homo sapiens, UniProt P21127); assay: Radiometric protein kinase assay (33PanQinase), CDK11B 357-795_CycK; assay type: biochemical; conditions: for IC50: highest assay concentration 1.00E-05 M; for Hill Slope: slope of the IC50 fit
# [10] = tested on: CDK8; design: method as in numbers not given; conditions: reporter displacement assay; previously characterized compounds, no method in this paper; ref numbers not given; read-out: IC50 for in vitro CDK8 binding; cited from earlier work
# [11] = target: T8, CDK7_CycH_MAT1 (Homo sapiens, UniProt P50613); assay: Radiometric protein kinase assay (33PanQinase), CDK7_CycH_MAT1; assay type: biochemical; conditions: for IC50: highest assay concentration 1.00E-05 M; for Hill Slope: slope of the IC50 fit
# T8 construct: purchased Reaction Biology
# [12] = target: T9, CDK9_CycT1 (Homo sapiens, UniProt P50750); assay: Radiometric protein kinase assay (33PanQinase), CDK9_CycT1; assay type: biochemical; conditions: for IC50: highest assay concentration 1.00E-05 M; for Hill Slope: slope of the IC50 fit
# T9 construct: purchased Reaction Biology
# [13] = target: T10, CDK5_p35NCK (Homo sapiens, UniProt Q00535); assay: Radiometric protein kinase assay (33PanQinase), CDK5_p35NCK; assay type: biochemical; conditions: for IC50: highest assay concentration 1.00E-05 M; for Hill Slope: slope of the IC50 fit
# T10 construct: purchased Reaction Biology
# [14] = target: T11, CDK13_CycK (Homo sapiens, UniProt Q14004); assay: Radiometric protein kinase assay (33PanQinase), CDK13_CycK; assay type: biochemical; conditions: slope of the IC50 fit
# T11 construct: purchased Reaction Biology
# [15] = target: CDK20_CycH (Homo sapiens, UniProt Q8IZL9); assay: Radiometric protein kinase assay (33PanQinase), CDK20_CycH; assay type: biochemical; conditions: for IC50: highest assay concentration 1.00E-05 M; for Hill Slope: slope of the IC50 fit
# [16] = target: T12, CDK16_CycY (Homo sapiens, UniProt Q00536); assay: Radiometric protein kinase assay (33PanQinase), CDK16_CycY; assay type: biochemical; conditions: for IC50: highest assay concentration 1.00E-05 M; for Hill Slope: slope of the IC50 fit
# T12 construct: purchased Reaction Biology
# [17] = target: CDK10_CycQ (Homo sapiens, UniProt Q15131); assay: Radiometric protein kinase assay (33PanQinase), CDK10_CycQ; assay type: biochemical; conditions: for IC50: highest assay concentration 1.00E-05 M; for Hill Slope: slope of the IC50 fit
# [18] = target: T13, CDK2_CycA2 (Homo sapiens, UniProt P24941); assay: Radiometric protein kinase assay (33PanQinase), CDK2_CycA2; assay type: biochemical; conditions: for IC50: highest assay concentration 1.00E-05 M, read-out: IC50; for Hill Slope: slope of the IC50 fit
# T13 construct: purchased Reaction Biology
# [19] = target: T14, CDK4_CycD1 (Homo sapiens, UniProt P11802); assay: Radiometric protein kinase assay (33PanQinase), CDK4_CycD1; assay type: biochemical; conditions: for IC50: highest assay concentration 1.00E-05 M; for Hill Slope: slope of the IC50 fit
# T14 construct: purchased Reaction Biology
# [20] = target: T15, CDK3_CycE1 (Homo sapiens, UniProt Q00526); assay: Radiometric protein kinase assay (33PanQinase), CDK3_CycE1; assay type: biochemical; conditions: slope of the IC50 fit
# T15 construct: purchased Reaction Biology
# [21] = target: T16, CDK12_CycK (Homo sapiens, UniProt Q9NYV4); assay: Radiometric protein kinase assay (33PanQinase), CDK12_CycK; assay type: biochemical; conditions: for Hill Slope: slope of the IC50 fit
# T16 construct: purchased Reaction Biology
# [22] = target: T17, CDK4_CycD3 (Homo sapiens, UniProt P11802); assay: Radiometric protein kinase assay (33PanQinase), CDK4_CycD3; assay type: biochemical; conditions: for IC50: highest assay concentration 1.00E-05 M; for Hill Slope: slope of the IC50 fit
# T17 construct: purchased Reaction Biology
# [23] = target: CDK20_CycT1 (Homo sapiens, UniProt Q8IZL9); assay: Radiometric protein kinase assay (33PanQinase), CDK20_CycT1; assay type: biochemical; conditions: for IC50: highest assay concentration 1.00E-05 M; for Hill Slope: slope of the IC50 fit
# [24] = target: T18, CDK1_CycE1 (Homo sapiens, UniProt P06493); assay: Radiometric protein kinase assay (33PanQinase), CDK1_CycE1; assay type: biochemical; conditions: for IC50: highest assay concentration 1.00E-05 M, read-out: IC50; for Hill Slope: slope of the IC50 fit
# T18 construct: purchased Reaction Biology
# [25] = target: CDK14_CycY (Homo sapiens, UniProt O94921); assay: Radiometric protein kinase assay (33PanQinase), CDK14_CycY; assay type: biochemical; conditions: for IC50: highest assay concentration 1.00E-05 M; for Hill Slope: slope of the IC50 fit
# [26] = target: T19, CDK2_CycE1 (Homo sapiens, UniProt P24941); assay: Radiometric protein kinase assay (33PanQinase), CDK2_CycE1; assay type: biochemical; conditions: for IC50: highest assay concentration 1.00E-05 M, read-out: IC50; for Hill Slope: slope of the IC50 fit
# T19 construct: purchased Reaction Biology
# [27] = target: T20, CDK1_CycA2 (Homo sapiens, UniProt P06493); assay: Radiometric protein kinase assay (33PanQinase), CDK1_CycA2; assay type: biochemical; conditions: for IC50: highest assay concentration 1.00E-05 M, read-out: IC50; for Hill Slope: slope of the IC50 fit
# T20 construct: purchased Reaction Biology
# [28] = target: T21, CDK5_p25NCK (Homo sapiens, UniProt Q00535); assay: Radiometric protein kinase assay (33PanQinase), CDK5_p25NCK; assay type: biochemical; conditions: for Hill Slope: slope of the IC50 fit
# T21 construct: purchased Reaction Biology
# [29] = target: T22, CDK8_CycC (Homo sapiens, UniProt P49336); assay: Radiometric protein kinase assay (33PanQinase), CDK8_CycC; assay type: biochemical; conditions: for Hill Slope: slope of the IC50 fit
# T22 construct: purchased Reaction Biology
# [30] = target: T23, CDK6_CycD1 (Homo sapiens, UniProt Q00534); assay: Radiometric protein kinase assay (33PanQinase), CDK6_CycD1; assay type: biochemical; conditions: for Hill Slope: slope of the IC50 fit
# T23 construct: purchased Reaction Biology
# [31] = target: T24, CDK15_CycA2 (Homo sapiens, UniProt Q96Q40); assay: Radiometric protein kinase assay (33PanQinase), CDK15_CycA2; assay type: biochemical; conditions: for IC50: highest assay concentration 1.00E-05 M; for Hill Slope: slope of the IC50 fit
# T24 construct: purchased Reaction Biology
# [32] = target: CDK18_CycY (Homo sapiens, UniProt Q07002); assay: Radiometric protein kinase assay (33PanQinase), CDK18_CycY; assay type: biochemical; conditions: for IC50: highest assay concentration 1.00E-05 M; for Hill Slope: slope of the IC50 fit
# [33] = target: T25, CDK3_CycC (Homo sapiens, UniProt Q00526); assay: Radiometric protein kinase assay (33PanQinase), CDK3_CycC; assay type: biochemical; conditions: for Hill Slope: slope of the IC50 fit
# T25 construct: purchased Reaction Biology
# [34] = highest assay concentration 1.00E-05 M
# T25 sequence (Q00526 whole entry): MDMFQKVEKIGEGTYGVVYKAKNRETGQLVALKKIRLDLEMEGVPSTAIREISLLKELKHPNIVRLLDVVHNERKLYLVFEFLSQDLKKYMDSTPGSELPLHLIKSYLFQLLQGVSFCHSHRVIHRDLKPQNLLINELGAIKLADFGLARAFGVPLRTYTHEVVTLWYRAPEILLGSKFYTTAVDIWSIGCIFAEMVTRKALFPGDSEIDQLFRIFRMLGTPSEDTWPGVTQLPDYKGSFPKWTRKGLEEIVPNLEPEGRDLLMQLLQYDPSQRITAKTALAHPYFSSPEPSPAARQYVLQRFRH
# T25 sequence (P24863 whole entry partner): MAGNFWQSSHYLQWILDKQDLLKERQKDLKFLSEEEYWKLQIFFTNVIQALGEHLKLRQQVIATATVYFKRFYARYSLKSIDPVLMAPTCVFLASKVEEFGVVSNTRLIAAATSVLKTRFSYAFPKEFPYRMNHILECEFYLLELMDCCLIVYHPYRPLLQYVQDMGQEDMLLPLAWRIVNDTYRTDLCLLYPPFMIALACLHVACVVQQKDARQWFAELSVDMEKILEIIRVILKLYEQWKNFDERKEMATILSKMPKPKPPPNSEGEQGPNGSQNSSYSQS
# CDK14_CycY, sequence (O94921 whole entry): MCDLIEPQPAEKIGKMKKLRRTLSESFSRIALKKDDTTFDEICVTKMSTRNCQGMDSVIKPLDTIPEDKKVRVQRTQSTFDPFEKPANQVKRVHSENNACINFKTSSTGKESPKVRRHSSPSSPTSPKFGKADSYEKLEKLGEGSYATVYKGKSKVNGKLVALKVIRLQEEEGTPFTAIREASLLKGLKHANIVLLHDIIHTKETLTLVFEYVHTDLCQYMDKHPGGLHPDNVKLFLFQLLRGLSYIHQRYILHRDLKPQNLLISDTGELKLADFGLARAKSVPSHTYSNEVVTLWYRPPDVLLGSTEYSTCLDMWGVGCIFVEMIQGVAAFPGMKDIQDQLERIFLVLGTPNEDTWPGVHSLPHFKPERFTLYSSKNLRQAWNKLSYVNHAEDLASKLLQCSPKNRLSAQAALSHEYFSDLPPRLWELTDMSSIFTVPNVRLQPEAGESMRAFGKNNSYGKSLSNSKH
# CDK14_CycY, sequence (Q8ND76 whole entry partner): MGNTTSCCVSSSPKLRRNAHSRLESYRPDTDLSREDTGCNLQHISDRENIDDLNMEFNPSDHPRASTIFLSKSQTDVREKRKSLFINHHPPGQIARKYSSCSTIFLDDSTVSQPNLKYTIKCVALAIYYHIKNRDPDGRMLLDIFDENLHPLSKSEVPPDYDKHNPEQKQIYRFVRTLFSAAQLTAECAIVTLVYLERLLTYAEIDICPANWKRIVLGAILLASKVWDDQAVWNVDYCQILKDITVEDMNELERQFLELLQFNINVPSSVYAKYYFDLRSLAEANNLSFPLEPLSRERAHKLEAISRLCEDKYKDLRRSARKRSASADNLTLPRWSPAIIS
# T22 sequence (P49336 whole entry): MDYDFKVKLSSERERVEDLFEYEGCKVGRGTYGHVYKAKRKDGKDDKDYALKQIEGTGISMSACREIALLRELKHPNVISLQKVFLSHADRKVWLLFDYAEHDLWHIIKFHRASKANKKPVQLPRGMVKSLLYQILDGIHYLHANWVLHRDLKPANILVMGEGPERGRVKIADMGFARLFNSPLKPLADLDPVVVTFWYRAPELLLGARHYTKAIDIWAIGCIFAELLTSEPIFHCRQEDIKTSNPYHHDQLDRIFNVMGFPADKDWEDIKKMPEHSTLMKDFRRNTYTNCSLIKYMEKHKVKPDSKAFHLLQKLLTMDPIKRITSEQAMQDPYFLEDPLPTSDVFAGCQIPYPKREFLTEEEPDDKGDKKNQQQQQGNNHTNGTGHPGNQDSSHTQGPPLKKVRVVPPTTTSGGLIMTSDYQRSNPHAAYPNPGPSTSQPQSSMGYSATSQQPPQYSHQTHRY
# T22 sequence (P24863 whole entry partner): as the sequence (P24863 whole entry partner) above
# CDK18_CycY, sequence (Q07002 whole entry): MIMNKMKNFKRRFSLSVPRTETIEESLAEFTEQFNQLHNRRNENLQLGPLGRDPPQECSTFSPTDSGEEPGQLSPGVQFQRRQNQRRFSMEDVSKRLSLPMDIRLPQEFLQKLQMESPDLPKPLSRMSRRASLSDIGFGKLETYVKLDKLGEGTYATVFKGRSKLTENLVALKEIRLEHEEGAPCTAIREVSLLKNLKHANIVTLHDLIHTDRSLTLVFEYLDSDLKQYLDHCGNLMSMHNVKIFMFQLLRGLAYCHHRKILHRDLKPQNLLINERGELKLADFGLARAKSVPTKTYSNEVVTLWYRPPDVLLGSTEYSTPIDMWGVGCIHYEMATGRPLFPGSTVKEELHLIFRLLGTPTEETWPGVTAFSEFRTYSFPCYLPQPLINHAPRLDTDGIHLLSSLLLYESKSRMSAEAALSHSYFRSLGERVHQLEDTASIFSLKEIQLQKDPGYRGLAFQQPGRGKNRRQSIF
# CDK18_CycY, sequence (Q8ND76 whole entry partner): as the sequence (Q8ND76 whole entry partner) above
# T24 sequence (Q96Q40 whole entry): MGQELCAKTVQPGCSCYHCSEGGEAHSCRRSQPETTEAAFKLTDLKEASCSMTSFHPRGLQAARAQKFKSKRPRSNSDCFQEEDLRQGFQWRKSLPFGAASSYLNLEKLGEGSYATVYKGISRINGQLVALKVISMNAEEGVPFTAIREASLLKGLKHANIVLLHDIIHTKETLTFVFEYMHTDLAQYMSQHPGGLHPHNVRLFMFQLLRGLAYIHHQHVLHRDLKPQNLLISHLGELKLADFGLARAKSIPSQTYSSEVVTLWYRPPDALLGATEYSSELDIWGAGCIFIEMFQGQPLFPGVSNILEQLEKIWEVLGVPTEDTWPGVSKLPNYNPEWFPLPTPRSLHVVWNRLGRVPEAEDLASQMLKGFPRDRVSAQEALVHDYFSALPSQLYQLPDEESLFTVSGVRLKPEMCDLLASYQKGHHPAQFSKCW
# T4 sequence (P50750 whole entry): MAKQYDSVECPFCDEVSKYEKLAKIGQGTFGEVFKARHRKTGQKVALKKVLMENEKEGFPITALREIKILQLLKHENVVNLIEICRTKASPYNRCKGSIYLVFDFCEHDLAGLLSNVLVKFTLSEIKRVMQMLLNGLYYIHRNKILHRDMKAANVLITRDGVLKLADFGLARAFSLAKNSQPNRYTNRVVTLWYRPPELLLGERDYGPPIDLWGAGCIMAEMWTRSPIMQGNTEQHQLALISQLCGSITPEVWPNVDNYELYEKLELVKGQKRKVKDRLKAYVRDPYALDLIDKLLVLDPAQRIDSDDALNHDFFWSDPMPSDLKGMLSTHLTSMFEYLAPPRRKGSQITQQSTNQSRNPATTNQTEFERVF
# T4 sequence (O75909 whole entry partner): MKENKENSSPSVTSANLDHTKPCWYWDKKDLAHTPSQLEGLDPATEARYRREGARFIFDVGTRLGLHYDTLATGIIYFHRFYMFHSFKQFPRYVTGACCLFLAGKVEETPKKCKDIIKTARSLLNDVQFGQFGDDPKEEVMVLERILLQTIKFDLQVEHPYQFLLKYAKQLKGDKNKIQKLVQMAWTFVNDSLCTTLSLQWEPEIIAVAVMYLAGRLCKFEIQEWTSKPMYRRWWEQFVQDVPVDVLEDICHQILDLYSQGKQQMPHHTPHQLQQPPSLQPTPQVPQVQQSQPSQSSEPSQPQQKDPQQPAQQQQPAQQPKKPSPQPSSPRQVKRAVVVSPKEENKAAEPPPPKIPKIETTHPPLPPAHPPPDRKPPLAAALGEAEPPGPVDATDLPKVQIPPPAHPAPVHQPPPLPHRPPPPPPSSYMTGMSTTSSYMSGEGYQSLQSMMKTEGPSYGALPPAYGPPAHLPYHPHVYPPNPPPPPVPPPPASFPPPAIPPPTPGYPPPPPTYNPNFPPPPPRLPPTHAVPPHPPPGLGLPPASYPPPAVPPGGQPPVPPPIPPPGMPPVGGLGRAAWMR
# T9 sequence (P50750 whole entry): as the sequence (P50750 whole entry) above
# T9 sequence (O60563 whole entry partner): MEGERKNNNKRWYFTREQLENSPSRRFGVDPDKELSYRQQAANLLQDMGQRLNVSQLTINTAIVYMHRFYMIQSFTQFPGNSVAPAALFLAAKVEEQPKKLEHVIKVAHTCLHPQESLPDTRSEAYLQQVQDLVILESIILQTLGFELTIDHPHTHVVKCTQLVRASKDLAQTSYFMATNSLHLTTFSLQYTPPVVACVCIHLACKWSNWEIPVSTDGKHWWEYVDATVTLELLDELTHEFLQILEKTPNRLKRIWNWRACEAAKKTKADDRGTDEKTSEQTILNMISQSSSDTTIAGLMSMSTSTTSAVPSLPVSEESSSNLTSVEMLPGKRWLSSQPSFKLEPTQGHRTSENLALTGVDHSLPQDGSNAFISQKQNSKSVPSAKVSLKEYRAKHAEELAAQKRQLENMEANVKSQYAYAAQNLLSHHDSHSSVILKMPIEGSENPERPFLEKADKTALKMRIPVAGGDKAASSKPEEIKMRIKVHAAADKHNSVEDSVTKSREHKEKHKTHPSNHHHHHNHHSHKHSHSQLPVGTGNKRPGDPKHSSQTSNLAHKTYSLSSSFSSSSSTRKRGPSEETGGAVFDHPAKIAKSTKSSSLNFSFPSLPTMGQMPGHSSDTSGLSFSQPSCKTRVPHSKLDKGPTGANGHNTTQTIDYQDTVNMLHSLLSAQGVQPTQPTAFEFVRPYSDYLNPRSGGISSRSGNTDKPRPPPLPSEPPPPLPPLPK
# CDK20_CycH, sequence (Q8IZL9 whole entry): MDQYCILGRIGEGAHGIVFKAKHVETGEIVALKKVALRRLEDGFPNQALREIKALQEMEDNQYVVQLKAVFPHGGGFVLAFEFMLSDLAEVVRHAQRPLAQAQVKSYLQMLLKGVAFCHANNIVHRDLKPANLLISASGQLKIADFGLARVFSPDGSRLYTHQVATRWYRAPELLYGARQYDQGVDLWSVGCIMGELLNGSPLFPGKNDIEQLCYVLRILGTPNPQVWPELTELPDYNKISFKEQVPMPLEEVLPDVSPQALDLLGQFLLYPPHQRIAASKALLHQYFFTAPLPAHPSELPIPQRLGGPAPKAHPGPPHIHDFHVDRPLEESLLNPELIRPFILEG
structure (smiles),measurement,setting,value
Cn1cc(-c2ccc(-c3cncc(Cl)c3N3CCC4(CCNC4=O)CC3)cc2)cn1 [CCT251545],IC50,"[1]; highest assay concentration 1.00E-05 M, read-out: IC50",> 10 µM
same,Hill Slope,[1],-0.29
same,IC50,[2],0.277 µM
same,Hill Slope,[2],-0.53
same,IC50,[3],> 10 µM
same,Hill Slope,[3],-0.64
same,IC50,[4],3.81 µM
same,Hill Slope,[4],-0.78
same,IC50,[5],> 10 µM
same,Hill Slope,[5],-0.3
same,IC50,[6],> 10 µM
same,Hill Slope,[6],-0.74
same,IC50,[7],> 10 µM
same,Hill Slope,[7],-0.17
same,Hill Slope,[8],-0.2
same,IC50,[9],> 10 µM
same,Hill Slope,[9],-8.69
same,IC50,[10],0.005 µM
same,IC50,[11],> 10 µM
same,Hill Slope,[11],-0.59
same,IC50,[12],6.07 µM
same,Hill Slope,[12],-0.94
same,IC50,[13],> 10 µM
same,Hill Slope,[13],-1.62
same,Hill Slope,[14],0.15
same,IC50,[15],> 10 µM
same,Hill Slope,[15],-0.44
same,IC50,[16],> 10 µM
same,Hill Slope,[16],-1.1
same,IC50,[17],> 10 µM
same,Hill Slope,[17],-0.51
same,IC50,[18],> 10 µM
same,Hill Slope,[18],-0.46
same,IC50,[19],> 10 µM
same,Hill Slope,[19],-0.31
same,Hill Slope,[20],-0.16
same,Hill Slope,[21],-0.07
same,IC50,[22],> 10 µM
same,Hill Slope,[22],-0.27
same,IC50,[23],> 10 µM
same,Hill Slope,[23],-0.39
same,IC50,[24],> 10 µM
same,Hill Slope,[24],-0.72
same,IC50,[25],> 10 µM
same,Hill Slope,[25],-0.82
same,IC50,[26],> 10 µM
same,Hill Slope,[26],-0.5
same,IC50,[27],> 10 µM
same,Hill Slope,[27],-0.78
same,IC50,[28]; [34],> 10 µM
same,Hill Slope,[28],-0.59
same,IC50,[29],0.0841 µM
same,Hill Slope,[29],-0.56
same,IC50,[30]; [34],> 10 µM
same,Hill Slope,[30],-1.25
same,IC50,[31],> 10 µM
same,Hill Slope,[31],-0.34
same,IC50,[32],> 10 µM
same,Hill Slope,[32],-0.5
same,IC50,[33],> 10 µM
same,Hill Slope,[33],-0.47
Cn1ncc2cc(-c3cnc(N)c(Cl)c3N3CCC4(CCNC4=O)CC3)ccc21 [CCT251921],Hill Slope,[1],0
same,IC50,[2],0.409 µM
same,Hill Slope,[2],-0.45
same,IC50,[3],> 10 µM
same,Hill Slope,[3],-0.59
same,IC50,[4],> 10 µM
same,Hill Slope,[4],-0.77
same,IC50,[5],> 10 µM
same,Hill Slope,[5],-0.33
same,IC50,[6],> 10 µM
same,Hill Slope,[6],-0.32
same,IC50,[7],> 10 µM
same,Hill Slope,[7],-0.39
same,IC50,[8]; [34],> 10 µM
same,Hill Slope,[8],-0.33
same,IC50,[9],> 10 µM
same,Hill Slope,[9],-0.41
same,IC50,[10],0.0049 µM
same,IC50,[11],> 10 µM
same,Hill Slope,[11],-0.33
same,IC50,[12],> 10 µM
same,Hill Slope,[12],-1.01
same,IC50,[13],> 10 µM
same,Hill Slope,[13],-0.4
same,Hill Slope,[14],0.03
same,IC50,[15],> 10 µM
same,Hill Slope,[15],-0.38
same,IC50,[16],> 10 µM
same,Hill Slope,[16],-0.3
same,IC50,[17],> 10 µM
same,Hill Slope,[17],-0.72
same,IC50,[18],> 10 µM
same,Hill Slope,[18],-0.89
same,IC50,[19],> 10 µM
same,Hill Slope,[19],-0.37
same,Hill Slope,[20],-0.12
same,IC50,[21]; [34],> 10 µM
same,Hill Slope,[21],-0.32
same,IC50,[22],> 10 µM
same,Hill Slope,[22],-0.37
same,IC50,[23],> 10 µM
same,Hill Slope,[23],-0.33
same,IC50,[24],> 10 µM
same,Hill Slope,[24],-0.77
same,IC50,[25],> 10 µM
same,Hill Slope,[25],-0.73
same,IC50,[26],> 10 µM
same,Hill Slope,[26],-0.94
same,IC50,[27],> 10 µM
same,Hill Slope,[27],-0.53
same,Hill Slope,[28],-0.17
same,Hill Slope,[29],-0.55
same,Hill Slope,[30],-0.13
same,IC50,[31],> 10 µM
same,Hill Slope,[31],-0.85
same,IC50,[32],> 10 µM
same,Hill Slope,[32],-0.84
same,IC50,[33],> 10 µM
same,Hill Slope,[33],-0.55
